Data on 22 compounds can be found in the supplement of paper PMC11424490.

Test [1] has as its system SW837. Kind of test: fitted bottom plateau of viability curve, % of DMSO control; higher = less maximal inhibition; extreme values may be limits of the assay. The procedure:
(§1)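 CellTiter-Glo proliferation assay in KRAS G12C mutant NCI-H2122 (72 h), SW837 (144 h) and NCI-H358 cells in 384-well plates. Monotherapy dose response was fitted with a four-parameter curve after normalisation to DMSO controls (% of control, PoC). IC50 is the relative IC50, averaged over replicates. Bottom is the fitted lower plateau in %PoC; Max.Conc. is the top dose tested.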

Test [2] relates to NCI-H2122. The description is as above. The procedure:
as §1

Test [3] deals with NCI-H2122. Briefly: relative IC50 of cell viability (CellTiter-Glo); higher = less potent. The procedure:
as §1
(ATP-based viability assays read luminescence as a measure of living cells.)

In test [4] the test system is SW837. Briefly: combination cScore with sotorasib (Bliss gap around IC50) (%PoC); higher = stronger additive effect. In a few lines:
(§2)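 NCI-H2122, NCI-H358 and SW837 cells were plated in 384-well plates at 500 or 800 cells per well, treated with concentration matrices after 24 h, and grown for 72 h (SW837 for 144 h). Luminescence from CellTiter-Glo was expressed as percent of control relative to vehicle wells and fitted with four-parameter curves. The score is the mean Bliss-independence gap, expected minus measured viability, across a field around both monotherapy IC50 values, or across the top concentrations where no IC50 was reached.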

The test system of test [5] is NCI-H2122. Described as above. In a few lines:
as §2

On to `Nc1ncn([C@@H]2O[C@H](CO)[C@@H](O)[C@H]2O)c(=O)n1` [Azacitidine] (top concentration tested 9999.8 nM), for which the “fitted bottom plateau of viability curve” value in test [1] was 93%; in test [2], 14.4%. Besides, the “relative IC50 of cell viability” value in test [3] was 1.94 µM.

As for `O=c1[nH]cc(F)c(=O)[nH]1` [Fluorouracil (5-FU)] (top concentration tested 1000.2 nM), the figures for the “fitted bottom plateau of viability curve” value in test [1] and in test [2] were 96.6% and 64.6%, respectively. Further, the “relative IC50 of cell viability” value in test [3] amounted to 0.945 µM.

As for `C[C@@H](Oc1cc(-c2cnn(C3CCNCC3)c2)cnc1N)c1c(Cl)ccc(F)c1Cl` (top concentration tested 10000 nM), the entries for the “fitted bottom plateau of viability curve” value in test [1] and in test [2] were 31.9% and 4.25%, respectively. Further, the “relative IC50 of cell viability” value in test [3] worked out at 1.23 µM.

`O=[N+]([O-])c1ccc(NCCNc2ncc(-c3ncc[nH]3)c(-c3ccc(Cl)cc3Cl)n2)nc1` (top concentration tested 10000 nM): the “fitted bottom plateau of viability curve” value in test [1] stood at 91.7%; in test [2], 43.5%. In test [3], the “relative IC50 of cell viability” value amounted to 8.95 µM.

For the compound `O=c1cc(N2CCOCC2)oc2c(-c3cccc4c3sc3ccccc34)cccc12` [NU-7441] (top concentration tested 10000 nM), the “fitted bottom plateau of viability curve” value in test [1] is 70.7%; in test [2], 42.8%. The “relative IC50 of cell viability” value in test [3] turned out to be 3.43 µM.

For the compound `CCc1cccc(CC)c1NC(=O)c1nn(C)c2c1CCc1cnc(Nc3ccc(C(=O)NC4CCN(C)CC4)cc3OC(F)(F)F)nc1-2` [NMS-P715] (top concentration tested 10000 nM), the “fitted bottom plateau of viability curve” value in test [1] was 58.9%; in test [2], 48.7%. Also, the “relative IC50 of cell viability” value in test [3] was determined as 3.96 µM.

Regarding `Nc1nc2[nH]cc(CCc3ccc(C(=O)N[C@@H](CCC(=O)O)C(=O)O)cc3)c2c(=O)[nH]1` [Pemetrexed] (top concentration tested 10000 nM), the “fitted bottom plateau of viability curve” value in test [1] was 90.7%; in test [2], 43.3%. The “relative IC50 of cell viability” value in test [3] is 0.0214 µM.

On to `Nc1ncn([C@H]2C[C@H](O)[C@@H](CO)O2)c(=O)n1` [Decitabine] (top concentration tested 10000 nM), for which the “fitted bottom plateau of viability curve” value in test [1] turned out to be 54%; in test [2] it was 57.7%. Further, in test [3], the “relative IC50 of cell viability” value was 1.36 µM.

In the case of `Cc1ccc(NC(=O)c2ccnc(C(F)(F)F)c2)cc1-c1cc(OCCO)nc(N2CCOCC2)c1` [LXH-254] (top concentration tested 1000 nM), the results for the “fitted bottom plateau of viability curve” value in test [1] and in test [2] were 94.2% and 63.6%, respectively. Further, the “relative IC50 of cell viability” value in test [3] was determined as 0.2 µM.

As to `COc1cc2c(NC3CCN(C(C)C)CC3)nc(C3CCCCC3)nc2cc1OCCCN1CCCC1` [UNC0638] (top concentration tested 10000 nM), the “fitted bottom plateau of viability curve” value was determined as 88.9% in test [1] and 46.7% in test [2]. Besides, in test [3], the “relative IC50 of cell viability” value worked out at 8.59 µM.

For `COc1cc2nccc(Oc3ccc(NC(=O)C4(C(=O)Nc5ccc(F)cc5)CC4)cc3)c2cc1OC` [XL-184] (top concentration tested 9999.9 nM), the results for the “fitted bottom plateau of viability curve” value in test [1] and in test [2] were 55.8% and 35.3%, respectively. Further, the “relative IC50 of cell viability” value in test [3] turned out to be 8.09 µM.

In the case of `O=C(CCCCCCC(=O)Nc1ccccc1)NO` [Vorinostat] (top concentration tested 10000 nM), the “fitted bottom plateau of viability curve” value turned out to be 25% in test [1] and 10.7% in test [2]. Also, in test [3], the “relative IC50 of cell viability” value was determined as 2.44 µM.

Take `CN1CC[C@H](c2c(O)cc(O)c3c(=O)cc(-c4ccccc4Cl)oc23)[C@H](O)C1` [Flavopiridol] + C=CC(=O)N1CCN(c2nc(=O)n(-c3c(C)ccnc3C(C)C)c3nc(-c4c(O)cccc4F)c(F)cc23)[C@@H](C)C1 [sotorasib]: the “combination cScore with sotorasib” value was 1.46 in test [4] and 6.54 in test [5].

In the case of `COc1ncc(-c2nc3c(n2C(C)C)[C@H](c2ccc(Cl)cc2)N(c2cc(Cl)cn(C)c2=O)C3=O)c(OC)n1` [HDM-201] + C=CC(=O)N1CCN(c2nc(=O)n(-c3c(C)ccnc3C(C)C)c3nc(-c4c(O)cccc4F)c(F)cc23)[C@@H](C)C1 [sotorasib], the “combination cScore with sotorasib” value in test [4] was determined as 7.32; in test [5], 1.73.

With `COc1ccc2nc3ccc(OC)cc3c(SCCCN)c2c1` + C=CC(=O)N1CCN(c2nc(=O)n(-c3c(C)ccnc3C(C)C)c3nc(-c4c(O)cccc4F)c(F)cc23)[C@@H](C)C1 [sotorasib], the “combination cScore with sotorasib” value in test [4] is -2.67; in test [5], 11.5.

Regarding `On1ncc2cc(CCc3nn[nH]n3)ccc21` + C=CC(=O)N1CCN(c2nc(=O)n(-c3c(C)ccnc3C(C)C)c3nc(-c4c(O)cccc4F)c(F)cc23)[C@@H](C)C1 [sotorasib], the “combination cScore with sotorasib” value in test [4] was -12.1; in test [5], -2.12.

Regarding `O=C(O)c1nn(Cc2ccc(Cl)cc2Cl)c2ccccc12` [Lonidamine] + C=CC(=O)N1CCN(c2nc(=O)n(-c3c(C)ccnc3C(C)C)c3nc(-c4c(O)cccc4F)c(F)cc23)[C@@H](C)C1 [sotorasib], the “combination cScore with sotorasib” value was 2.86 in test [4] and -0.87 in test [5].

`C[C@]12CC[C@@H]3c4ccc(O)cc4C[C@@H](CCCCCCCCC[S+]([O-])CCCC(F)(F)C(F)(F)F)[C@H]3[C@@H]1CC[C@@H]2O` (stereo partly specified) [Fulvestrant] + C=CC(=O)N1CCN(c2nc(=O)n(-c3c(C)ccnc3C(C)C)c3nc(-c4c(O)cccc4F)c(F)cc23)[C@@H](C)C1 [sotorasib]: the “combination cScore with sotorasib” value in test [4] was 1.95; in test [5] it was 8.41.

Turning to `O=C(O)C1(C(=O)O)CCC1.[NH2-].[NH2-].[Pt+2]` [Carboplatin] + C=CC(=O)N1CCN(c2nc(=O)n(-c3c(C)ccnc3C(C)C)c3nc(-c4c(O)cccc4F)c(F)cc23)[C@@H](C)C1 [sotorasib], the “combination cScore with sotorasib” value in test [4] was -4.17; in test [5], 11.6.

Consider `NC(=O)Nc1cc(-c2cccc(F)c2)sc1C(=O)N[C@H]1CCCNC1` [AZD-7762] + C=CC(=O)N1CCN(c2nc(=O)n(-c3c(C)ccnc3C(C)C)c3nc(-c4c(O)cccc4F)c(F)cc23)[C@@H](C)C1 [sotorasib], for which the “combination cScore with sotorasib” value in test [4] worked out at 6.36; in test [5], 2.45.

Take `COc1cccc2c1C(=O)c1c(O)c3c(c(O)c1C2=O)C[C@@](O)(C(=O)CO)C[C@@H]3O[C@H]1C[C@H](N)[C@H](O)[C@H](C)O1` [Doxorubicin] + C=CC(=O)N1CCN(c2nc(=O)n(-c3c(C)ccnc3C(C)C)c3nc(-c4c(O)cccc4F)c(F)cc23)[C@@H](C)C1 [sotorasib]: the results for the “combination cScore with sotorasib” value in test [4] and in test [5] were 11 and 11.1, respectively.

For the compound `Cc1ccc(Nc2nccc(N(C)c3ccc4c(C)n(C)nc4c3)n2)cc1S(N)(=O)=O` [Pazopanib] + C=CC(=O)N1CCN(c2nc(=O)n(-c3c(C)ccnc3C(C)C)c3nc(-c4c(O)cccc4F)c(F)cc23)[C@@H](C)C1 [sotorasib], the results for the “combination cScore with sotorasib” value in test [4] and in test [5] were 2.58 and 9.15, respectively.
